Measured values from ChEMBL document CHEMBL1141185, “4,6-Disubstituted 2,2-dimethylchromans structurally related to the K(ATP) channel opener cromakalim: design, synthesis, and effect on insulin release and vascular tone” (J Med Chem, 2005).

Tests used:
Format in all cases: functional
Rattus norvegicus [1] = species: Rattus norvegicus; experiment: Percentage of residual insulin secretion value in the pancreatic islets of rat after treatment with the compound at 10 uM concentration
Rattus norvegicus [2] = species: Rattus norvegicus; experiment: Myorelaxant activity of the compound against insulin secretion in the pancreatic islets ofrat; (activity expressed as ED50); conditions: read-out: ED50 (the source's name)
Rattus norvegicus [3] = species: Rattus norvegicus; experiment: Inhibitory concentration against rat vascular smooth muscle tissue
Rattus norvegicus [4] = species: Rattus norvegicus; experiment: Myorelaxant effect on 80 mM KCl induced rat aorta rings determined; (activity expressed as ED50); conditions: read-out: ED50 (the source's name)
Rattus norvegicus [5] = species: Rattus norvegicus; experiment: Myorelaxant effect on 30 mM KCl induced rat aorta rings determined; (activity expressed as ED50); conditions: read-out: ED50 (the source's name)
Rattus norvegicus [6] = species: Rattus norvegicus; experiment: Myorelaxant effect on 30 mM KCl induced rat aorta rings determined after incubated with the 1 uM glibenclamide in the medium; (activity expressed as ED50); conditions: read-out: ED50 (the source's name)
Rattus norvegicus [7] = species: Rattus norvegicus; experiment: Myorelaxant effect on 30 mM KCl induced rat aorta rings determined after incubated with the 10 uM glibenclamide in the medium; (activity expressed as ED50); conditions: read-out: ED50 (the source's name)
Rattus norvegicus [8] = species: Rattus norvegicus; experiment: Myorelaxant effect of the compound on 30 mM KCl induced rat aorta rings determined after incubated with the 0 uM glibenclamide in the medium; (activity expressed as ED50); conditions: read-out: ED50 (the source's name)
Rattus norvegicus [9] = species: Rattus norvegicus; experiment: Myorelaxant effect of the compound on 80 mM KCl induced rat aorta rings determined; (activity expressed as ED50); conditions: read-out: ED50 (the source's name)
Rattus norvegicus [10] = species: Rattus norvegicus; experiment: Myorelaxant effect of the compound on 30 mM KCl induced rat aorta rings determined after incubated with the 1 uM glibenclamide in the medium; (activity expressed as ED50); conditions: read-out: ED50 (the source's name)
Rattus norvegicus [11] = species: Rattus norvegicus; experiment: Myorelaxant effect of the compound on 30 mM KCl induced rat aorta rings determined after incubated with the 10 uM glibenclamide in the medium; (activity expressed as ED50); conditions: read-out: ED50 (the source's name)

EC50 (Rattus norvegicus [2])	SMILES	Residual secretion (Rattus norvegicus [1])	further results
38.5 µM	CCOC(=O)NC1CC(C)(C)Oc2ccc(Cl)cc21 (stereo not given)	83.3%	
0.35 µM	CC(N/C(=N\C#N)Nc1ccncc1)C(C)(C)C (stereo not given) [PINACIDIL ANHYDROUS]	96%	IC50 (Rattus norvegicus [3]): 0.35 µM
23.8 µM	CC1=Nc2ccc(Cl)cc2S(=O)(=O)N1 [DIAZOXIDE]	71.7%	IC50 (Rattus norvegicus [3]): 23.8 µM
6.4 µM	CC(=O)NC1CC(C)(C)Oc2ccc(Br)cc21 (stereo not given)	94.2%	
15.3 µM	CC1(C)CC(NC(=O)NCc2ccccc2)c2cc(Cl)ccc2O1 (stereo not given)	67.1%	
6.6 µM	CC(=O)NC1CC(C)(C)Oc2ccc(Cl)cc21 (stereo not given)	100.8%	EC50 (Rattus norvegicus [4]): 84.2 µM; EC50 (Rattus norvegicus [5]): 6.3 µM; EC50 (Rattus norvegicus [6]): 33.8 µM; EC50 (Rattus norvegicus [7]): 44.6 µM
144 µM	CC(C)NC(=O)NC1CC(C)(C)Oc2ccc(Cl)cc21 (stereo not given)	86.3%	
8.7 µM	CC(C)NC(=S)NC1CC(C)(C)Oc2ccc(Br)cc21 (stereo not given)	58.9%	
10.9 µM	CC(C)NC(=S)NC1CC(C)(C)Oc2ccc(Cl)cc21 (stereo not given)	83.3%	
42.9 µM	CCNC(=O)NC1CC(C)(C)Oc2ccc(F)cc21 (stereo not given)	106.2%	
25.7 µM	CCOC(=O)NC1CC(C)(C)Oc2ccc(Br)cc21 (stereo not given)	88.8%	
7.6 µM	CCNC(=O)NC1CC(C)(C)Oc2ccc(Br)cc21 (stereo not given)	91.5%	
210 µM	CC1(C)CC(NC(=O)NS(=O)(=O)c2ccccc2)c2cc(Cl)ccc2O1 (stereo not given)	94.7%	
17.6 µM	CCNC(=S)NC1CC(C)(C)Oc2ccc(F)cc21 (stereo not given)	82.5%	
0.13 µM	CC1(C)Oc2ccc(C#N)cc2C(N2CCCC2=O)C1O (stereo not given) [CROMAKALIM]	94.7%	EC50 (Rattus norvegicus [8]): 0.14 µM; EC50 (Rattus norvegicus [9]): > 300 µM; EC50 (Rattus norvegicus [10]): 1.8 µM; EC50 (Rattus norvegicus [11]): 15.2 µM; IC50 (Rattus norvegicus [3]): 0.13 µM
109 µM	CC(C)NC(=O)NC1CC(C)(C)Oc2ccc(F)cc21 (stereo not given)	98.4%	
8.2 µM	CCNC(=S)NC1CC(C)(C)Oc2ccc(Cl)cc21 (stereo not given)	96.5%	
18.5 µM	CC(C)NC(=S)NC1CC(C)(C)Oc2ccc(F)cc21 (stereo not given)	88.7%	
> 300 µM	CC1(C)CC(NC(=O)NCc2ccccc2)c2cc(Br)ccc2O1 (stereo not given)	58.5%	
> 300 µM	CC(C)NC(=O)NC1CC(C)(C)Oc2ccc(Br)cc21 (stereo not given)	79.1%	
3.7 µM	CCNC(=S)NC1CC(C)(C)Oc2ccc(Br)cc21 (stereo not given)	80.8%	
6.8 µM	CCNC(=O)NC1CC(C)(C)Oc2ccc(Cl)cc21 (stereo not given)	89.5%	
	CC1(C)CC(NC(=O)NCc2ccccc2)c2cc(F)ccc2O1 (stereo not given)	80.8%	
63.6 µM	Cc1ccc(S(=O)(=O)NC(=O)NC2CC(C)(C)Oc3ccc(Cl)cc32)cc1 (stereo not given)	103.5%	
20.2 µM	CC1(C)CC(NC(=S)NCc2ccccc2)c2cc(Cl)ccc2O1 (stereo not given)	45.4%	
72.4 µM	CCOC(=O)NC1CC(C)(C)Oc2ccc(F)cc21 (stereo not given)	100.8%	
46.5 µM	CC(=O)NC1CC(C)(C)Oc2ccc(F)cc21 (stereo not given)	83.8%	
51 µM	CC1(C)CC(NC(=O)NS(=O)(=O)c2ccc(Cl)cc2)c2cc(Cl)ccc2O1 (stereo not given)	89.2%	
24.8 µM	CC1(C)CC(NC(=S)NCc2ccccc2)c2cc(Br)ccc2O1 (stereo not given)	51.8%	
4.3 µM	CC1(C)CC(NC(=S)NCc2ccccc2)c2cc(F)ccc2O1 (stereo not given)	54.4%	
